Experimental data published in patent US20120115774A1, “ANTIMICROBIAL CATIONIC LIPO-BETA-PEPTIDES” (UNIVERSITY OF MANITOBA, priority 2009, published 2012).
Values after ≈ are worked out from the molar mass of the structure shown. Like-named read-outs stand apart in the source and are kept apart here.

Columns and labels:
S. aureus ATCC 29213 = format: cell-based, Staphylococcus aureus
Method: (§1) Antibacterial activity against Gram positive and Gram negative microorganisms was investigated via broth macrodilution tests using CLSI methodology (Zhanel et al., 2008). Stock solutions of lipopeptide antibiotics in water were brought to a standard 512 μg/mL, with only βC12-KLLK and βC16-KAAK requiring a minute amount of DMSO. Organisms were subcultured and isolated on blood agar, suspended in 3 mL of Mueller-Hinton broth at the turbidity of a […], and diluted to approximately 10^5 CFU/mL before introduction into tubes containing serially diluted lipopeptide antibiotic in Mueller-Hinton broth. Activity testing against S. pneumoniae used broth supplemented with laked horse blood to give 5% horse blood in experimental tubes. The turbidity resulting from lipopeptide solution in broth required the creation of control tubes lacking microbes serving as turbidity controls. All tubes were incubated overnight for 16-20 h at 37° C. Colony counts of diluted 10^5 CFU/mL solution of microorganism confirmed the validity of the trial with colony counts expected in the 10^5 CFU/mL range and also incubated overnight in a CO2 incubator at 37° C. and 5% CO2.

[1] = tested on: S. epidermidis ATCC 14990; format: cell-based, Staphylococcus epidermidis
Method: as §1

[2] = tested on: E. coli (Amikacin MIC 32 μg/mL) CAN-ICU 63074; format: cell-based
Method: as §1

[3] = tested on: E. coli (Gentamicin resistant-Gent R) CAN-ICU 61714; format: cell-based
Method: as §1

E. coli ATCC 25922 = format: cell-based
Method: as §1

[4] = tested on: methicillin-resistant Staphylococcus aureus (MRSA) ATCC 33592; format: cell-based
Method: as §1

[5] = tested on: methicillin-resistant Staphylococcus epidermidis (MRSE) CAN-ICU 61589; format: cell-based
Method: as §1

E. faecalis ATCC 29212 = format: cell-based, Enterococcus faecalis
Method: as §1

E. faecium ATCC 27270 = format: cell-based, Enterococcus faecium
Method: as §1

S. pneumoniae ATCC 49619 = format: cell-based, Streptococcus pneumoniae
Method: as §1

[6] = tested on: P. aeruginosa (Gent-R) CAN-ICU 62308; format: cell-based, Pseudomonas aeruginosa
Method: as §1

P. aeruginosa ATCC 27853 = format: cell-based, Pseudomonas aeruginosa
Method: as §1

[7] = tested on: S. maltophilia CAN-ICU 62584; format: cell-based, Stenotrophomonas maltophilia
Method: as §1

[8] = tested on: A. baumannii CAN-ICU 63169; format: cell-based, Acinetobacter baumannii
Method: as §1

[9] = tested on: E. coli (Amikacin MIC 32 μg/mL) CAN-ICU 63074; conditions: strain description, clinical isolate of CAN-ICU study; cited from earlier work
[10] = tested on: methicillin-resistant Staphylococcus epidermidis (MRSE) CAN-ICU 61589; conditions: strain description, clinical isolate of CAN-ICU study; cited from earlier work
K. pneumoniae ATCC 13883 = format: cell-based, Klebsiella pneumoniae; conditions: Mueller-Hinton broth, 16-20 h at 37° C.
Method: as §1

[11] = Amikacin MIC 32 μg/mL) CAN-ICU 63074
[12] = Gentamicin resistant-Gent R) CAN-ICU 61714
[13] = methicillin-resistant CAN-ICU 61589
[14] = Mueller-Hinton broth, 16-20 h at 37° C.

Molecule	MIC, S. aureus ATCC29213 (S. aureus ATCC 29213; ATCC 29213)	MIC, S. epidermidis ATCC14990 ([1]; ATCC 14990)	MIC, E. coli CAN-ICU 63074 [2, 11]	MIC, E. coli CAN-ICU 61714 [3, 12]	MIC, E. coli ATCC25922 (E. coli ATCC 25922; ATCC 25922)	MIC, MRSA ATCC33592 ([4]; ATCC 33592)	MIC, MRSE CAN-ICU 61589 [5, 13]	MIC, E. faecalis ATCC29212 (E. faecalis ATCC 29212)	MIC, E. facium ATCC27270 (E. faecium ATCC 27270)	MIC, S. pneumoniae ATCC49619 (S. pneumoniae ATCC 49619; ATCC 49619)	MIC, P. aeruginosa CAN-ICU 62308 ([6]; Gent-R) CAN-ICU 62308)	MIC, P. aeruginosa ATCC27853 (P. aeruginosa ATCC 27853; ATCC 27853)	MIC, S. maltophilia CAN-ICU 62584 ([7]; CAN-ICU 62584)	MIC, A. baumannii CAN-ICU 63169 ([8]; CAN-ICU 63169)	other results
CCCCCCCCCCCC(=O)N[C@@H](CCCCN)CC(=O)N[C@H](CC(=O)N[C@H](CC(=O)N[C@@H](CCCCN)CC(N)=O)CC(C)C)CC(C)C [(β)C12-KLLK]	32 µg/mL (≈ 43.4 µM)	16 µg/mL (≈ 21.7 µM)	64 µg/mL (≈ 86.7 µM)	64 µg/mL (≈ 86.7 µM)	64 µg/mL (≈ 86.7 µM)	32 µg/mL (≈ 43.4 µM)	32 µg/mL (≈ 43.4 µM)	64 µg/mL (≈ 86.7 µM)	32 µg/mL (≈ 43.4 µM)	128 µg/mL (≈ 173 µM)	128 µg/mL (≈ 173 µM)	128 µg/mL (≈ 173 µM)	256 µg/mL (≈ 347 µM)	>128 µg/mL	–
CCCCCCCCCCCCCCCC(=O)N[C@@H](CCCCN)CC(=O)N[C@@H](C)CC(=O)N[C@@H](C)CC(=O)N[C@@H](CCCCN)CC(N)=O [(β)C16-KAAK]	64 µg/mL (≈ 90.1 µM)	8 µg/mL (≈ 11.3 µM)	64 µg/mL (≈ 90.1 µM)	64 µg/mL (≈ 90.1 µM)	64 µg/mL (≈ 90.1 µM)	32 µg/mL (≈ 45.1 µM)	16 µg/mL (≈ 22.5 µM)	32 µg/mL (≈ 45.1 µM)	32 µg/mL (≈ 45.1 µM)	>64 µg/mL	128 µg/mL (≈ 180 µM)	256 µg/mL (≈ 361 µM)	>128 µg/mL	256 µg/mL (≈ 361 µM)	–
CCCCCCCCCCCCCCCC(=O)N[C@@H](CCCCN)CC(=O)NCCC(=O)NCCC(=O)N[C@@H](CCCCN)CC(N)=O [(β)C16-KGGK]	16 µg/mL (≈ 23.5 µM)	8 µg/mL (≈ 11.7 µM)	32 µg/mL (≈ 46.9 µM)	32 µg/mL (≈ 46.9 µM)	32 µg/mL (≈ 46.9 µM)	32 µg/mL (≈ 46.9 µM)	16 µg/mL (≈ 23.5 µM)	32 µg/mL (≈ 46.9 µM)	32 µg/mL (≈ 46.9 µM)	128 µg/mL (≈ 188 µM)	>64 µg/mL	64 µg/mL (≈ 93.8 µM)	256 µg/mL (≈ 375 µM)	128 µg/mL (≈ 188 µM)	–
CCCCCCCCCCCCCCCC(=O)N[C@@H](CCCCN)CC(=O)N[C@@H](CCCCN)CC(=O)N[C@@H](CCCCN)CC(=O)N[C@@H](CCCCN)CC(N)=O [(β)C16-KKKK]	16 µg/mL (≈ 19.4 µM)	4 µg/mL (≈ 4.85 µM)	32 µg/mL (≈ 38.8 µM)	32 µg/mL (≈ 38.8 µM)	16 µg/mL (≈ 19.4 µM)	16 µg/mL (≈ 19.4 µM)	4 µg/mL (≈ 4.85 µM)	32 µg/mL (≈ 38.8 µM)	16 µg/mL (≈ 19.4 µM)	128 µg/mL (≈ 155 µM)	128 µg/mL (≈ 155 µM)	64 µg/mL (≈ 77.6 µM)	256 µg/mL (≈ 311 µM)	256 µg/mL (≈ 311 µM)	–
NCC[C@H](O)C(=O)N[C@@H]1C[C@H](N)[C@@H](O[C@H]2O[C@H](CN)[C@@H](O)[C@H](O)[C@H]2O)[C@H](O)[C@H]1O[C@H]1O[C@H](CO)[C@@H](O)[C@H](N)[C@H]1O [Amikacin]	–	–	–	–	–	–	–	–	–	–	–	–	–	–	Amikacin MIC of E. coli CAN-ICU 63074 [9]: 32 µg/mL
Cc1nnc(SCC2=C(C(=O)O)N3C(=O)[C@@H](NC(=O)Cn4cnnn4)[C@H]3SC2)s1 [Cefazolin]	–	–	–	–	–	–	–	–	–	–	–	–	–	–	Cefazolin-CZ MIC of MRSE CAN-ICU 61589 [10]: > 32 µg/mL
Gentamicin [reference compound]	–	–	–	–	–	–	–	–	–	–	–	–	–	–	MIC, S. aureus ATCC29213 (S. aureus ATCC 29213; [14]): 1 µg/mL; MIC, S. epidermidis ATCC14990 [1, 14]: 0.25 µg/mL; MIC, E. coli CAN-ICU 63074 [2, 14]: 8 µg/mL; MIC, E. coli CAN-ICU 61714 ([3]; Gentamicin resistant strain, Mueller-Hinton broth, 16-20 h at 37° C.): 128 µg/mL; MIC, E. coli ATCC25922 (E. coli ATCC 25922; [14]): 1 µg/mL; MIC, MRSA ATCC33592 [4, 14]: 2 µg/mL; MIC, MRSE CAN-ICU 61589 [5, 14]: 32 µg/mL; MIC, S. pneumoniae ATCC49619 (S. pneumoniae ATCC 49619; broth supplemented with laked horse blood (5% horse blood), 16-20 h at 37° C.): 4 µg/mL; MIC, P. aeruginosa CAN-ICU 62308 ([6]; Gent-R strain, Mueller-Hinton broth, 16-20 h at 37° C.): 128 µg/mL; MIC, P. aeruginosa ATCC27853 (P. aeruginosa ATCC 27853; [14]): 8 µg/mL; MIC, S. maltophilia CAN-ICU 62584 [7, 14]: >512 µg/mL; MIC, A. baumannii CAN-ICU 63169 [8, 14]: 128 µg/mL; MIC, S. pneumoniae ATCC13883 (K. pneumoniae ATCC 13883): 0.25 µg/mL
